From ChEMBL document CHEMBL4765279, “Discovery of a novel series of imidazo[1',2':1,6]pyrido[2,3-d]pyrimidin derivatives as potent cyclin-dependent kinase 4/6 inhibitors” (Eur J Med Chem, 2020)
The source made the active and inactive calls. The calls are words filed in the database; no cut-off is given here.

Key:
COLO 205 [1] = experiment: Cell cycle arrest in human COLO 205 cells assessed as accumulation at G0/G1 phase at 200 nM measured after 24 hrs by propidium iodide staining based flow cytometry relative to control; format: functional
COLO 205 [2] = experiment: Antitumor activity against human COLO 205 cells xenografted in BALB/c mouse assessed as reduction in tumor volume at 3 mg/kg, po qd for 11 days measured post last dose by caliper method; format: functional, organism-based; conditions: time 11.0 day
[3] = Cmax in BALB/c mouse at 10 mg/kg, po by LC-MS/MS analysis; format: ADME, organism-based; design: route oral, dose 10 mg/kg; conditions: in vivo
[4] = Intrinsic clearance in rat liver microsomes at 1 uM preincubated for 10 mins followed by NADPH addition and measured after 1 hr by LC-MS/MS analysis; format: ADME, Microsome; conditions: time 70 min, read-out: CLH
COLO 205 [5] = experiment: Antitumor activity against human COLO 205 cells xenografted in BALB/c mouse assessed as tumor growth inhibition at 3 mg/kg, po qd for 11 days relative to control; format: functional; conditions: COLO 205, po, time 11 day, read-out: TGI
CYP3A4 = CYP3A4 (Homo sapiens, UniProt P08684); experiment: Inhibition of CYP3A4 in human liver microsomes at 10 uM measured after 20 mins in presence of NADPH by LC-MS/MS analysis relative to control; format: ADME
CYP3A4, sequence (P08684 whole entry): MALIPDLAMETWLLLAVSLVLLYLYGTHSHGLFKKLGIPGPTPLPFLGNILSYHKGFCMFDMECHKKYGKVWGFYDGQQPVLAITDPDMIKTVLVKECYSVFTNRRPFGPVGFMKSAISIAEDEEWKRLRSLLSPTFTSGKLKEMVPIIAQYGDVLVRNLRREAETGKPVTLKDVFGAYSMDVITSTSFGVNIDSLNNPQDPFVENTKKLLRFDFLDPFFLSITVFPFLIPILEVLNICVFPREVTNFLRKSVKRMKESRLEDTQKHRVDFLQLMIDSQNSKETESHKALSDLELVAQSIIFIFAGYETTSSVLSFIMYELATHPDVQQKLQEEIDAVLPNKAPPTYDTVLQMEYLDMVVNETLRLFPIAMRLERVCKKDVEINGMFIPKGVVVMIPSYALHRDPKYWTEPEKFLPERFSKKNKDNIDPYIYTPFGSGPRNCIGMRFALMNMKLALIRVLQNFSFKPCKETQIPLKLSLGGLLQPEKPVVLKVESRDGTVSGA

[6] = Half life in Sprague-Dawley rat at 6 mg/kg, po by LC-MS/MS analysis; format: ADME, organism-based; conditions: in vivo
[7] = Intrinsic clearance in human liver microsomes at 1 uM preincubated for 10 mins followed by NADPH addition and measured after 1 hr by LC-MS/MS analysis; format: ADME, Microsome; conditions: time 70 min, read-out: CLH
Cytochrome P450 1A2 = molecular target: T1, Cytochrome P450 1A2 (Homo sapiens, UniProt P05177); experiment: Time-dependent inhibition of CYP1A2 in human liver microsomes at 10 uM in presence of NADPH by LC-MS/MS analysis; format: ADME
T1 sequence (P05177 whole entry): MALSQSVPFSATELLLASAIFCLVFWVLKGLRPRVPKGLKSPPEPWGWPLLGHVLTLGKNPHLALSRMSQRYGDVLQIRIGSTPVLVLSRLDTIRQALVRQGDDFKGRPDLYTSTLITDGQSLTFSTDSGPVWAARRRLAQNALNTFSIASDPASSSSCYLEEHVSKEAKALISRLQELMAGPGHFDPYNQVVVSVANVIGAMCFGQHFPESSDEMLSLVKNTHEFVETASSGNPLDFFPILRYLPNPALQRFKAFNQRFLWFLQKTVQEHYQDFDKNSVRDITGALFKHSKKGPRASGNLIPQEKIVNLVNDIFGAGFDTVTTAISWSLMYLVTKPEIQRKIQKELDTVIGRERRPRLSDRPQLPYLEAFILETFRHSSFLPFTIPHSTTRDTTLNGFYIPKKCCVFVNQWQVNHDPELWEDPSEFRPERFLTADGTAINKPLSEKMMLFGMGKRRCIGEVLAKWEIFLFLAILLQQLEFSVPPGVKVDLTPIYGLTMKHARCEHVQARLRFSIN

COLO 205 [8] = experiment: Antitumor activity against human COLO 205 cells xenografted in BALB/c mouse assessed as tumor growth at 3 mg/kg, po qd for 11 days measured post last dose relative to control; format: functional; conditions: time 11 day
CYP1A2 = molecular target: T2, CYP1A2 (Homo sapiens, UniProt P05177); experiment: Inhibition of CYP1A2 in human liver microsomes at 10 uM measured after 20 mins in presence of NADPH by LC-MS/MS analysis relative to control; format: ADME
T2 sequence (P05177 whole entry): T1 sequence (P05177 whole entry)

- Cmax [3]: 90 ng/mL
- microsomal CLint at 1 µM [4]: 54 µL/min/mg
- inhibition at […], 10 µM (CYP3A4): 8%
- half-life [6]: 4.96 h
- microsomal CLint at 1 µM [7]: 6 µL/min/mg
- TDI (Cytochrome P450 1A2): Not Active
- inhibition at […], 10 µM (CYP1A2): 17%
SMILES: CC(=O)c1c(C)c2cnc(Nc3ccc(N4CCNCC4)cc3)nc2n2cc(C(C)C)nc12
- Activity (COLO 205 [1]): 94.2%
- Activity (COLO 205 [2]): Active
- inhibition in vivo at 3 mg/kg (COLO 205 [5]): 63%
- T/C (COLO 205 [8]): 33%
